Paper PMC4595804, “A strategy to discover decoy chemokine ligands with an anti-inflammatory activity” (Scientific Reports, 2015)

Key:
CCL22 = molecular target: T1, CCL22 (Homo sapiens, UniProt O00626); assay: CCL22-induced CCR4+ HUT78 T cell chemotaxis (Transwell), neutraligand protocol; format: cell-based; settings: 3 nM CCL22 preincubated 1 h with compound; read-out: IC50, inhibition of CCL22-induced HUT78 chemotaxis
T1 construct: codes for the mature CCL17 or CCL22 with an N-terminal thioredoxin-hexahistidin (TRX- (His)6) tag; thioredoxin (TRX) (N, cleaved yes); (His)6 (N, cleaved yes); made in house; host or cells: E. coli BL21 (DE3)
T1 sequence (O00626 25-93): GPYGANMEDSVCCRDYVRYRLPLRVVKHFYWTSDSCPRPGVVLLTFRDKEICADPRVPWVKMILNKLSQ
Method: Figure 6 (a) Selectivity of CCL17 and CCL22 neutraligands towards 10 chemokines according to the “neutraligand protocol”. […] Each column represents the mean (block) ± SD (bars) of n = 3 experiments performed in triplicate. *p < 0.05; **p < 0.01; ***p < 0.005 as compared to chemokine + DMSO. (b) Chemokine neutraligands inhibited CCR4 endocytosis induced by CCL22 or CCL17. EGFP-CCR4^+ HEK cells were incubated for 30 min with DMSO or chemokine (100 nM CCL22 or CCL17) in the presence or absence of test compounds. […] Cell surface EGFP-tagged CCR4 receptors were measured by EGFP antibody labeling and flow cytometry analysis. CCR4 internalization was expressed as a percentage of total receptor surface expression calculated using control cells incubated with DMSO (100%). […] The number of migrating cells in the presence of chemokine and compounds were expressed as the corresponding percentages. Results were analyzed by fitting the experimental curves (% of migrating cells vs log compound concentration) using the Kaleidagraph software program, and the corresponding IC50 values were calculated. […]
The T- cell line, HUT78 (ATCC), was cultured in RPMI 1640 supplemented with streptomycin, penicillin and 10% FCS without phenol red. […] After a 2 h incubation at 37 °C and 5%CO2, the plates were read with an excitation wavelength of 485 nm and an emission wavelength of 535 nm. […]

COX2 = molecular target: T2, COX2 (Homo sapiens, UniProt P35354); assay: COX2 mediated PGE2 release in LPS-treated primary monocytes; format: cell-based; settings: 100 µM, monocytes + LPS + arachidonic acid
T2 construct: endogenous in cells; host or cells: primary human monocytes treated with LPS
Method: the wound closure was determined as the difference between wound width at times 0 and 72h. This experiment was repeated three times.
Human primary monocytes were isolated from buffy coats of healthy human blood donors and seeded in 24-well plates (500,000 cells/ml in 1ml) for COX-1/2 activity or 96-well plates for cell viability experiments.
Cells were seeded in 96 well plates (5,000 cells/well in 200µl) for cytotoxicity testing (Alamar […]
doses). After 24h, cytotoxicity was evaluated in the wells using the Alamar Blue method. NaF (250µg/ml) was used as a control in this experiment.
Cyclooxygenase (COX) activity
COX1 mediated prostaglandin E2 (PGE2) release. Monocytes were treated with arachidonic […]
were then collected for the determination of PGE2 by enzyme immunoassay (EIA) […]
COX2 mediated prostaglandin E2 (PGE2) release. Monocytes were incubated with LPS (10U/ml) for 24h to induce COX2 protein synthesis. After renewal of medium (serum free), […]
before AA treatment. The activity of COX2 was determined by measuring PGE2 (Cayman) in the supernatants by EIA. Aspirin (10µM) and diclofenac (10µM) were used as control […]
NaF (250µg/ml) was used as a control (relative light unit, r.l.u). (c) Monocytes were treated […]
GPN136 (grey bars). The activity of COX1 was determined by measuring prostaglandin E2 (PGE2). […]
of COX2 was determined by measuring PGE2. […]

T2 sequence (P35354 18-604): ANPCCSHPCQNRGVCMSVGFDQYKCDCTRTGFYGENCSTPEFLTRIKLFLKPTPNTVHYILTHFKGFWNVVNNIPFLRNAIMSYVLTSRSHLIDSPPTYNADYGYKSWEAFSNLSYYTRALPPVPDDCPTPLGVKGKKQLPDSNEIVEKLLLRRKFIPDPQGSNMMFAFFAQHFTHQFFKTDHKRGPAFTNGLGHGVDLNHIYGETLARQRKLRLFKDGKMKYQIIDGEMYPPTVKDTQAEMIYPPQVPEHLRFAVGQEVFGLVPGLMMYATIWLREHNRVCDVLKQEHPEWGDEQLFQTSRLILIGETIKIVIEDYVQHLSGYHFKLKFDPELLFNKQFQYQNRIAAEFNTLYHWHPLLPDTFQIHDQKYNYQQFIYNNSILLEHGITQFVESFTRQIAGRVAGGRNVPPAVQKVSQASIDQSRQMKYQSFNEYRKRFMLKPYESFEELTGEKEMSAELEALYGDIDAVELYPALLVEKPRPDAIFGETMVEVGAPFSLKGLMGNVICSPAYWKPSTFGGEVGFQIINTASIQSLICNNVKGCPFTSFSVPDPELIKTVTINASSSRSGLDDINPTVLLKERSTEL

IC50 (CCL22)	SMILES	effect on COX2 activity (PGE2) (COX2)
0.34 ± 0.1 nM	O=C(OCC(O)CO)c1ccccc1O (centres unmarked) [GPN136, 2,3-dihydroxypropyl 2-hydroxybenzoate]	
	CC(C)=CCn1cnc2c1c(=O)n(C)c(=O)n2C [GPN279, 1,3-dimethyl-7-(3-methylbut-2-enyl)-1H-purine-2,6(3H, 7H)-dione]	no effect
